# Results published in paper PMC13010972 (Chemical communications (Cambridge, England), 2026).
# Columns and labels:
# S. enterica = assay: checkerboard assay with colistin; type: cell-based, Salmonella enterica; conditions: R-1 with colistin; FIC < 0.5 indicates synergy
# [1] = test system: genes linked to the PhoPQ TCS; conditions: cited from earlier work
# [2] = test system: polymyxin-resistant S. enterica strain EG9492; conditions: co-treatment of resistant strain EG9492s; cited from earlier work
structure (smiles),measurement,setting,value
"Nc1nc2ccc(OC(F)(F)F)cc2s1 [R-1, riluzole]",fractional inhibitory concentration (FIC) value,S. enterica,0.28
same,expression of genes linked to the PhoPQ TCS,[1],downregulation
same,change in the colistin MIC,[2],~ 8 fold
